Active and inactive are the calls of the source.
Columns and labels:
Assay type in all cases: functional
[1] = target: T1, Sentrin-specific protease 8 (Homo sapiens, UniProt Q96LD8); experiment: SENP8 protease inhibitors, SAR follow-up, biochemical, luminescence (AID 504501)
T1 sequence (Q96LD8 whole entry): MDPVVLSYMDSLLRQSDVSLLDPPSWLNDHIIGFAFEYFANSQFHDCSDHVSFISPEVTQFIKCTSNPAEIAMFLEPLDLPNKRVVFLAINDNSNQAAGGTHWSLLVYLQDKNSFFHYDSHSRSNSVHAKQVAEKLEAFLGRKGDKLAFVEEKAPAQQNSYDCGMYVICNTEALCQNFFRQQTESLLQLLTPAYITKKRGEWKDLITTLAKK

Caspase-3 = target: T2, Caspase-3 (Homo sapiens, UniProt P42574); experiment: SAR Analysis of small molecule inhibitors of Sentrin-specific proteases (SENPs) using a Caspase-3 Selectivity assay. [Related pubchem assays (depositor defined):AID2540, AID2599, AID434973, AID489001]
T2 sequence (P42574 whole entry): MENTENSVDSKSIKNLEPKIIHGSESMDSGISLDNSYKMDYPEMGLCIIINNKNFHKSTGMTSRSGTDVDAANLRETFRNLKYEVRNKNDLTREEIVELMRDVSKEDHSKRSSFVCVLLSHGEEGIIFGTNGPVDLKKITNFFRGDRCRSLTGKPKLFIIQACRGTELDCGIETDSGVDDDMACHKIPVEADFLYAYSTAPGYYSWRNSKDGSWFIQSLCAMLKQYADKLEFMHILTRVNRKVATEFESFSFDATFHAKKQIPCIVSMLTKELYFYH

[2] = target: T3, Sentrin-specific protease 6 (Homo sapiens, UniProt Q9GZR1); experiment: SAR Analysis of small molecule inhibitors of Sentrin-specific protease 6 (SENP6) using a Luminescent assay. [Related pubchem assays (depositor defined):AID2582, AID2599]
T3 sequence (Q9GZR1 whole entry): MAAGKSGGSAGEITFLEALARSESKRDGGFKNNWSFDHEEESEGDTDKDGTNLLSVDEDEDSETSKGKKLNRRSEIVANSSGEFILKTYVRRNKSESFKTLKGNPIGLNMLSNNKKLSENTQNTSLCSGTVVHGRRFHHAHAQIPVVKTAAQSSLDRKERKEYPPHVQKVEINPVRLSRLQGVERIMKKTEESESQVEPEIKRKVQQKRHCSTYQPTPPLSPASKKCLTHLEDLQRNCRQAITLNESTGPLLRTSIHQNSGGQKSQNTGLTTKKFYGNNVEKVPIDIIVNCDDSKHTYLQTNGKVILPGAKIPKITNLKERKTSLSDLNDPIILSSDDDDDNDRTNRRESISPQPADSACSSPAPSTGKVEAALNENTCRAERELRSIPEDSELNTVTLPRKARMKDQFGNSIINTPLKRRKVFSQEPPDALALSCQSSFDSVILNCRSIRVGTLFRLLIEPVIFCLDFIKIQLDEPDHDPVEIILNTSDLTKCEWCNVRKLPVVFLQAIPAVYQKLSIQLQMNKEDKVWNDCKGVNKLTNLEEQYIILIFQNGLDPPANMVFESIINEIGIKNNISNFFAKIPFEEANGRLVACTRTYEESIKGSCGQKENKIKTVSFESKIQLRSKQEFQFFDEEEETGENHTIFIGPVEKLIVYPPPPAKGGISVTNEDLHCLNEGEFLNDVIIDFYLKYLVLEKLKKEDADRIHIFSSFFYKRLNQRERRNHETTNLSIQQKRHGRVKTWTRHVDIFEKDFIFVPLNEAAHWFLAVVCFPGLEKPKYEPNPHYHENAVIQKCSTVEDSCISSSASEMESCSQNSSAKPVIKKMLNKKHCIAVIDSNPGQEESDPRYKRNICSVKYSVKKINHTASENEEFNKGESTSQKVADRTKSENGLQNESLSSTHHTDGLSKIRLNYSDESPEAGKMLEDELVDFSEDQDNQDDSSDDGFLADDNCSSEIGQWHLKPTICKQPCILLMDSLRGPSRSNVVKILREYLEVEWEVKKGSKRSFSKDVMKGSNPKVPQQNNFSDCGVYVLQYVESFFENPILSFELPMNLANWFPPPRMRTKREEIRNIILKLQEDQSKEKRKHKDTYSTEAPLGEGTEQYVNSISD

[3] = target: T4, Sentrin-specific protease 7 (Homo sapiens, UniProt Q9BQF6); experiment: SENP7 protease inhibitors, SAR follow-up, biochemical, luminescence (AID 504497)
T4 sequence (Q9BQF6 whole entry): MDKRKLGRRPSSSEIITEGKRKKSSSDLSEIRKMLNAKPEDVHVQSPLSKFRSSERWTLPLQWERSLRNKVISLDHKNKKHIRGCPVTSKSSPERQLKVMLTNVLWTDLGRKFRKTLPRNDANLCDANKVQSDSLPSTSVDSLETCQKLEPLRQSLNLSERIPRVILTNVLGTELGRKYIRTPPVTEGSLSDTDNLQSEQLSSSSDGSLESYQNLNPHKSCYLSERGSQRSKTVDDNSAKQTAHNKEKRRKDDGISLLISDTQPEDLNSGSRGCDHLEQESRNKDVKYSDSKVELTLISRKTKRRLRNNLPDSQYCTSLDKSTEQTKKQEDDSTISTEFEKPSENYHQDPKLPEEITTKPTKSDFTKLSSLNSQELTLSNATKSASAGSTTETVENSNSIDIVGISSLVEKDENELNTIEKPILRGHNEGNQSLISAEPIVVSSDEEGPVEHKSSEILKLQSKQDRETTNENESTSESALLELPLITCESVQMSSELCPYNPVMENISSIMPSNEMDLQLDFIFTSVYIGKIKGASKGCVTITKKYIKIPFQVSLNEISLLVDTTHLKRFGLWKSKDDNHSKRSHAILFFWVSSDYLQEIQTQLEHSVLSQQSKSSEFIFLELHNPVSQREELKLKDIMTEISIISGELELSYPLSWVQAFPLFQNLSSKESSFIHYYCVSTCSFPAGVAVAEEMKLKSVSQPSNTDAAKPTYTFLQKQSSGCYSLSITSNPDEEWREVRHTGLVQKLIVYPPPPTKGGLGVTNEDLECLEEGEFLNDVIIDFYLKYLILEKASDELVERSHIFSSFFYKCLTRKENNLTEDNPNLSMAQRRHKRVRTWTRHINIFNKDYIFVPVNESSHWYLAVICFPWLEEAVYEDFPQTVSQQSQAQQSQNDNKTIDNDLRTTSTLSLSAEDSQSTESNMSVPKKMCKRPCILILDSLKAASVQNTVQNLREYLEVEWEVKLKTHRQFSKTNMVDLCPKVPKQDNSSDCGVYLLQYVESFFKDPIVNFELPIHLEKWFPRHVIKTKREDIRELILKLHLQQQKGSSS

[4] = target: Serine/threonine-protein kinase TAO1 (Homo sapiens, UniProt Q7L7X3)
Chain of Serine/threonine-protein kinase TAO1 (Q7L7X3 whole entry): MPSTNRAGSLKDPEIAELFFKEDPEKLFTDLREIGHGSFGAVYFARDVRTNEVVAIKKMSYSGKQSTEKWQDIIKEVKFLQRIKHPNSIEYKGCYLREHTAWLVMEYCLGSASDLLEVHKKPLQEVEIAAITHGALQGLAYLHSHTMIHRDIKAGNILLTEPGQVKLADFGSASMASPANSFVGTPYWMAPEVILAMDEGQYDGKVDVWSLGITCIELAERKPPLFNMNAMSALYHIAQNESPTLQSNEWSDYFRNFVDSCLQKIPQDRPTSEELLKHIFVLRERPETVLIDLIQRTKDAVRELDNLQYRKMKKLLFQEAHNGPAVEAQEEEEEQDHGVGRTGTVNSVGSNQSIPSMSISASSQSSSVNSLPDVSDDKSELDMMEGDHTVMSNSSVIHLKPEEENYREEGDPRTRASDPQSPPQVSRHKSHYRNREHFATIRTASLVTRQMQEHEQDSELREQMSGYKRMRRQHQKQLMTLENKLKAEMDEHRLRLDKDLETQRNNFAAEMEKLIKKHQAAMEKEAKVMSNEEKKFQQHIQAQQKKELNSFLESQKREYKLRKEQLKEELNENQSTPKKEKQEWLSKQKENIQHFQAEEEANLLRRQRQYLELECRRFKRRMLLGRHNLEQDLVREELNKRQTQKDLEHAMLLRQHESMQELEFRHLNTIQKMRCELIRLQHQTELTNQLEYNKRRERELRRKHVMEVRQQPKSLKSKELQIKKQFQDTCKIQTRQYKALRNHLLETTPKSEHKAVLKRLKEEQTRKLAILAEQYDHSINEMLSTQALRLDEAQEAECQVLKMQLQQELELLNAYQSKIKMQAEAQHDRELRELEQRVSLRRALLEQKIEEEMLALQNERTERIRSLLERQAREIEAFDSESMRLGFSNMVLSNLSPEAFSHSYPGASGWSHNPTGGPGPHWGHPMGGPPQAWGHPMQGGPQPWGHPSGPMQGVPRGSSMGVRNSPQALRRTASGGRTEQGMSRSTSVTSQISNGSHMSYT

[5] = target: Leukocyte tyrosine kinase receptor (Homo sapiens, UniProt P29376); experiment: Navigating the Kinome. Panel member name: LTK
Chain of Leukocyte tyrosine kinase receptor (P29376 whole entry): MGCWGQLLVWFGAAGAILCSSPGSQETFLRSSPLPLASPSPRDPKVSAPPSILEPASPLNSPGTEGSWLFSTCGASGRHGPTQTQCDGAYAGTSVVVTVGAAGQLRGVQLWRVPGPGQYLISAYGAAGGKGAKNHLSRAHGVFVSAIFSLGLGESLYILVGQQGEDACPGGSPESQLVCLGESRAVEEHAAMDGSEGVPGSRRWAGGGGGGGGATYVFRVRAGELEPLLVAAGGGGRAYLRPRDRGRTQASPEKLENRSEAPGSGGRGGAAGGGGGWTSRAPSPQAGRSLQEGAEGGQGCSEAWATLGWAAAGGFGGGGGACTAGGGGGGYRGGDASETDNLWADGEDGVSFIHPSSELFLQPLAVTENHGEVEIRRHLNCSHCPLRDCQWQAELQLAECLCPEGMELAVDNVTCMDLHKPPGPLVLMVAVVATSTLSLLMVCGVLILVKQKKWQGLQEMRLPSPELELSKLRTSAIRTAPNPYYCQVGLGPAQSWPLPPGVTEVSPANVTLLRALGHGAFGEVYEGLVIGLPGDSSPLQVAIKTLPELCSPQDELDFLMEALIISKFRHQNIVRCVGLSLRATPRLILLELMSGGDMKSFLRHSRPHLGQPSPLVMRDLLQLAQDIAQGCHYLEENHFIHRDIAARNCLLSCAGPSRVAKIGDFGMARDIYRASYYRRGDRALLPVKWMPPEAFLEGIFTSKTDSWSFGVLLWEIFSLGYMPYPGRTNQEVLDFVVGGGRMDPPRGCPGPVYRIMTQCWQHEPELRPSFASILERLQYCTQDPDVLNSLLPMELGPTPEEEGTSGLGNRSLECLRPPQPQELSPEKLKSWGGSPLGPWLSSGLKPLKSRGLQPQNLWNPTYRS

[6] = target: T5, Neuropeptides B/W receptor type 1 (Homo sapiens, UniProt P48145); experiment: GPR7 antagonist potency, late-stage follow-up, cell-based, fluorescence, dose response, set 5 (AID 588566)
T5 sequence (P48145 whole entry): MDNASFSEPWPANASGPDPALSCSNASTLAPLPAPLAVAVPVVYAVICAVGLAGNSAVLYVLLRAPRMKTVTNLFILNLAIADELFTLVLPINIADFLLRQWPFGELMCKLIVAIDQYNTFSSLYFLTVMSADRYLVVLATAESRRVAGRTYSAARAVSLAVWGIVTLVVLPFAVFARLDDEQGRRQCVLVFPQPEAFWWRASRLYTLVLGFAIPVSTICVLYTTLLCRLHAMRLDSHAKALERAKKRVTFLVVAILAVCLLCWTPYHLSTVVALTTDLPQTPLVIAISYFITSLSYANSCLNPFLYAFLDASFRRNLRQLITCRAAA

[7] = target: Melanin-concentrating hormone receptor 1 (Homo sapiens, UniProt Q99705); experiment: Late-stage fluorescence-based counterscreen for antagonists of the G-protein coupled receptor 7 (GPR7): cell-based dose response assay to identify antagonists of the melanin-concentrating hormone receptor 1 (MCHR1) Set 5.
Chain of Melanin-concentrating hormone receptor 1 (Q99705 whole entry): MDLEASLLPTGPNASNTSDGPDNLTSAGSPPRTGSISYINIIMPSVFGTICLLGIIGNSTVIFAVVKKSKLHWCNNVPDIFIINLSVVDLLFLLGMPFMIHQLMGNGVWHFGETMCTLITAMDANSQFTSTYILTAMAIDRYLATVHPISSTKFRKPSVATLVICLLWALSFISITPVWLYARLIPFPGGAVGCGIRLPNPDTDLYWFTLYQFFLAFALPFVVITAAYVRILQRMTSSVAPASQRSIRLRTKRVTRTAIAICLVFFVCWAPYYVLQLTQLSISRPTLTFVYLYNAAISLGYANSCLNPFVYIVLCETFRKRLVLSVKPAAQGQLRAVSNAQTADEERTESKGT

## CCCCc1ccc2nc(NC(=O)c3cc(Br)cs3)sc2c1
[1]
  IC50: > 99 µM (inactive)
Caspase-3
  IC50: > 99 µM (inactive)
[2]
  IC50: > 99 µM (inactive)
[3]
  IC50: > 99 µM (inactive)

## COc1cc(OC)cc(-c2nc(/C=C/c3ccccc3)no2)c1
[1]
  IC50: > 99 µM (inactive)
Caspase-3
  IC50: > 99 µM (inactive)
[2]
  IC50: > 99 µM (inactive)
[3]
  IC50: > 99 µM (inactive)

## O=C(O)C1CN(Cc2ccc(OCc3ccc(Cl)cc3Cl)cc2)C1
[4]
  Ki: 1 µM (active)
[5]
  Ki: 2.51 µM (active)

## CCOc1ccc(Oc2c(N3CCCCC3)c(Br)nn(Cc3cccc4ccccc34)c2=O)cc1
[6]
  IC50: > 20 µM (inactive)
[7]
  IC50: > 20 µM (inactive)

## COc1cc(OC)cc(Oc2c(Cl)cnn(Cc3cccc4ccccc34)c2=O)c1
[6]
  IC50: 10.1 µM (inactive)
[7]
  IC50: > 20 µM (inactive)

Reference: ChEMBL document CHEMBL1201862, “PubChem BioAssay data set” (2004)
